# Source: US20120238488A1, “COMPOUNDS AND METHODS FOR TREATING NEOPLASIA” (priority 2009, published 2012)
# Read-outs that look alike come from different tables or passages of the source.
# How the values were obtained:
# H160 (Lung) = test: SRB assay, H160; format: cell-based, human; details: 48 h; for TGI / GI50: H160, SRB; for CC50 / GI50: Homo sapiens; for CC50: read-out: LC50
# Description: (§1) SRB assays were performed according to standard National Cancer Institute Guidelines. Briefly, human tumor cells from different cancer panels were seeded into 96 well plates in 100 μL (plating densities ranging from 5-40,000 cells/well depending on the doubling time of individual cell lines) in serum-containing media for twenty-four hours prior to the addition of the compounds to be assayed. After 24 hours, one plate of each cell line was fixed in situ with trichloroacetic acid (TCA). The fixed slides were used to determine the cell population for each cell line at the time of drug addition (Tz). Each compound to be tested was solubilized in DMSO and the desired concentration was then added to the medium and diluted serially 1:10 to provide a total of five or ten drug concentrations plus control (in a final volume of 200 μL). The starting dose before any dilution was 100 uM for all compounds.
# (§2) Following drug addition, each culture was incubated for forty-eight hours. The assay was terminated with the addition of cold TCA. The supernatant was discarded, and the plates were washed with tap water and air dried. Sulforhodamine B (SRB) solution was then added to each well. After staining, the bound stain was solubilized and the absorbance was read on an automated plate reader at a wavelength of 515 nm.
# (§3) Using the absorbance measurements [time zero, (Tz), control growth, (C), and test growth in the presence of drug at the ten concentration levels (Ti)], the percentage growth was calculated at each of the drug concentrations levels. Percentage growth inhibition was calculated as:
# (§4) [(Ti−Tz)/(C−Tz)]×100 for concentrations for which Ti>/=Tz
# (§5) [(Ti−Tz)/Tz]×100 for concentrations for which Ti<Tz.
# (§6) Three dose response parameters were calculated for each experimental agent. Growth inhibition of 50% (GI50) was calculated from [(Ti−Tz)/(C−Tz)]×100=50, which was the drug concentration resulting in a 50% reduction in the net protein increase (as measured by SRB staining) in control cells during the drug. The drug concentration resulting in total growth inhibition (TGI) was calculated from Ti=Tz. The LC50 (concentration of drug resulting in a 50% reduction in the measured protein at the end of the drug treatment as compared to that at the beginning) indicating a net loss of cells following treatment was calculated from [(Ti−Tz)/Tz]×100=−50.
# (§7) Values were calculated for each of these three parameters when the level of activity was reached; however, if the effect was not reached or was exceeded, the value for that parameter was expressed as greater or less than the maximum or minimum concentration tested.
# (§8) Table 4 summarizes results characterizing the effects of compound Nos. 120, 12, 61, 1, and 56 on GI50, which measures the cell growth inhibitory power of the compound, TGI, which measures cytostatic effect (TGI) and LC50, which signifies cytotoxic effect. Each of these parameters in Table 4 was calculated in a sulforhodamine B (SRB) assay, which provides a colorimetric measure of a compound's anti-cancer activity. SRB assays were performed with compounds of the invention in 22 different cell lines (shaded in light gray in Table 4), which represent nine different tumor panels (lung, melanoma, ovary, prostate, CNS, breast, pancreas colon and renal). Ouabain and digoxin were used as controls. Paclitaxel was added as a non-Na^+K^+-ATPase inhibitor control.
# LOXIMVI (Melanoma) = test: SRB assay, LOXIMVI; format: cell-based, human; details: 48 h; for CC50 / GI50: Homo sapiens, LOX IMVI; for CC50: read-out: LC50; for GI50 / TGI: LOXIMVI, SRB
# Description: as §1, §2, §3, §4, §5, §6, §7, §8
# IGROV1 (Ovary) = test: SRB assay, IGROV1; format: cell-based, human; details: for CC50 / GI50: Homo sapiens; for CC50: IGROV-1, 48 h, read-out: LC50; for GI50: IGROV-1; for GI50 / TGI: IGROV1, SRB, 48 h
# Description: as §1, §2, §3, §4, §5, §6, §7, §8
# U251 (CNS) = test: SRB assay, U251; format: cell-based, human; details: for GI50 / CC50: Homo sapiens; for CC50: read-out: LC50
# Description: as §1, §2, §3, §4, §5, §6, §7, §8
# MCF7 (Breast) = test: SRB assay, MCF7; format: cell-based, human; details: for CC50 / GI50: Homo sapiens; for CC50: MCF7, 48 h, read-out: LC50; for GI50 / TGI: MCF7, SRB, 48 h
# Description: as §1, §2, §3, §4, §5, §6, §7, §8
# SU8686 (Pancreas) = test: SRB assay, SU8686; format: cell-based, human; details: for CC50 / GI50: Homo sapiens; for CC50: SU.86.86, 48 h, read-out: LC50; for GI50: SU.86.86; for GI50 / TGI: SU8686, SRB, 48 h
# Description: as §1, §2, §3, §4, §5, §6, §7, §8
# HCT15 (Colon) = test: SRB assay, HCT15; format: cell-based, human; details: for TGI / GI50: HCT15, SRB, 48 h; for CC50 / GI50: Homo sapiens; for CC50: HCT-15, 48 h, read-out: LC50; for GI50: HCT-15
# Description: as §1, §2, §3, §4, §5, §6, §7, §8
# [1] = tested on: 22 different cell lines, nine tumor panels (lung, melanoma, ovary, prostate, CNS, breast, pancreas colon and renal); test: SRB assay, all tumor cell line panels (summary statements); format: cell-based, human; details: for viability and/or cell proliferation of neoplastic cell lines: lung, breast, CNS, colon, prostate, ovary, pancreas, kidney and melanoma lines, including a multidrug resistant cell line
# Description: as §1, §2, §3
# Three dose response parameters were calculated for each experimental agent. […] The drug concentration resulting in total growth inhibition (TGI) was calculated from Ti=Tz. The LC50 (concentration of drug resulting in a 50% reduction in the measured protein at the end of the drug treatment as compared to that at the beginning) indicating a net loss of cells following treatment was calculated from [(Ti−Tz)/Tz]×100=−50.
# Each of these parameters in Table 4 was calculated in a sulforhodamine B (SRB) assay, which provides a colorimetric measure of a compound's anti-cancer activity. SRB assays were performed with compounds of the invention in 22 different cell lines (shaded in light gray in Table 4), which represent nine different tumor panels (lung, melanoma, ovary, prostate, CNS, breast, pancreas colon and renal). […] Paclitaxel was added as a non-Na^+K^+-ATPase inhibitor control.
# [2] = tested on: HCT116 colon cancer, PC3 and DU145 prostate cancer cell lines; test: MTT proliferation/viability assay; format: cell-based; details: 72 h, FIGS. 1A-1D, HCT116 only compound 120
# Description: All assays were performed in triplicate.
# The effect of the different compounds on the proliferation and viability of cancer cell lines was tested. Compound 120 was tested in one colon cancer cell line (HCT116), and compound Nos. 120, 12, 61, 1, and 56 were tested in two prostate cancer cell lines (PC3 and DU145). […] This colorimetric assay uses the reduction of MTT to formazan as a measure of metabolic activity. Untreated cells cultured in the presence of serum were used as a negative control.
# [3] = U-251, U251, SRB, 48 h, read-out: GI50
SMILES,TGI (H160 (Lung)) [µM],CC50 (H160 (Lung)) [µM],GI50 (H160 (Lung)) [nM],CC50 (LOXIMVI (Melanoma)) [µM],GI50 (LOXIMVI (Melanoma)) [nM],TGI (LOXIMVI (Melanoma)) [µM],CC50 (IGROV1 (Ovary)) [µM],GI50 (IGROV1 (Ovary)) [nM],TGI (IGROV1 (Ovary)) [µM],"CC50 (U251 (CNS); U-251, 48 h) [µM]",CC50 (MCF7 (Breast)) [µM],GI50 (MCF7 (Breast)) [nM],TGI (MCF7 (Breast)) [µM],CC50 (SU8686 (Pancreas)) [µM],TGI (HCT15 (Colon)) [µM],CC50 (HCT15 (Colon)) [µM],GI50 (HCT15 (Colon)) [nM],"GI50 action in all cell line panels tested (in words) ([1]; SRB, all cell line panels)",viability and/or cell proliferation of neoplastic cell lines [1],inhibition of cell proliferation and viability (MTT) [2],further results
"C[C@H]1O[C@@H](O[C@H]2[C@@H](O)C[C@H](O[C@H]3[C@@H](O)C[C@H](O[C@H]4CC[C@@]5(C)[C@H](CC[C@@H]6[C@@H]5C[C@@H](O)[C@]5(C)[C@@H](C7=CC(=O)OC7)CC[C@]65O)C4)O[C@@H]3C)O[C@@H]2C)C[C@H](O)[C@@H]1O [Digoxin, reference compound]",<0.08,0.3,< 80,> 100,80,>100,> 100,40,0.35,0.61,0.4,< 80,0.1,0.63,0.06,0.16,30,,,,"TGI (U251 (CNS)): 0.10 µM; GI50 (U251 (CNS); U-251, 48 h): 20 nM; GI50 (SU8686 (Pancreas)): 30 nM; TGI (SU8686 (Pancreas)): 0.09 µM"
"C[C@]12CCC(=NOC3CCNC3)CC1CCC1C2CC[C@]2(C)C(=O)CCC12 (stereo partly drawn) [Compound 56, (10S,13S)-10,13-dimethyl-3-(pyrrolidin-3-yloxyimino)tetradecahydro-1H-cyclopenta[a]phenanthren-17(2H)-one]",,,,,,,,,,,,,,,,,,nanomolar GI50 action,reduced the viability and/or cell proliferation,strong inhibition of cell proliferation and viability,"GI50 ([1]; Homo sapiens, SRB, all cell line panels, read-out: GI50 activity for all cell line panels tested): < 100 nM"
"C[C@]12CCC(=NOCCN)CC1CCC1C2CC[C@]2(C)C(=O)CCC12 (stereo partly drawn) [Compound 1, (10S,13S)-3-(2-aminoethoxyimino)-10,13-dimethyltetradecahydro-1H-cyclopenta[a]phenanthren-17(2H)-one]",,,,,,,,,,,,,,,,,,nanomolar GI50 action,reduced the viability and/or cell proliferation,strong inhibition of cell proliferation and viability,
"CC(=O)O[C@H]1C(=O)[C@@]2(C)[C@H]([C@H](OC(=O)c3ccccc3)[C@]3(O)C[C@H](OC(=O)[C@H](O)[C@@H](NC(=O)c4ccccc4)c4ccccc4)C(C)=C1C3(C)C)[C@]1(OC(C)=O)CO[C@@H]1C[C@@H]2O [Paclitaxel, reference compound]",3.7685,> 10,< 100,5.18,< 1,0.288,10.6,1,3.305,6.73,> 10,< 100,>10,16.5,0.852,12.3,53,,,,"GI50 (U251 (CNS); [3]): < 1 nM; TGI (U251 (CNS); U251, SRB, 48 h): 1.745 µM; GI50 (SU8686 (Pancreas)): 8 nM; TGI (SU8686 (Pancreas)): 7.927 µM"
"C[C@]12CCC(=NOC3CCNC3)C=C1CCC1C2CC[C@]2(C)C(=O)CCC12 (stereo partly drawn) [Compound 61, (10R,13S)-10,13-dimethyl-3-(pyrrolidin-3-yloxyimino)-2,3,7,8,9,10,11,12,13,14,15,16-dodecahydro-1H-cyclopenta[a]phenanthren-17(6H)-one]",,,,,,,,,,,,,,,,,,nanomolar GI50 action,reduced the viability and/or cell proliferation,strong inhibition of cell proliferation and viability,
"C[C@]12CCC(=NOCCN)C=C1CCC1C2CC[C@]2(C)C(=O)CCC12 (stereo partly drawn) [Compound 12, (10R,13S)-3-(2-aminoethoxyimino)-10,13-dimethyl-2,3,7,8,9,10,11,12,13,14,15,16-dodecahydro-1H-cyclopenta[a]phenanthren-17(6H)-one]",5.86,8.73,2990,≥ 117,660,24.06,68.4,5370,12.38,8.61,9.47,3790,6.63,,6.70,9.61,3790,mostly single-digit micromolar GI50 action,reduced the viability and/or cell proliferation,strong inhibition of cell proliferation and viability,"GI50 (U251 (CNS); [3]): 3090 nM; TGI (U251 (CNS); U251, SRB, 48 h): 5.85 µM"
